Experimental data taken from patent US20130281398A1, “TREATMENT OF DISEASES BY EPIGENETIC REGULATION” (RVX Therapeutics Inc., priority 2012, published 2013).

Target: T1, Brd4 bromodomain 1 (Homo sapiens, UniProt O60885)
T1 construct: Illustrative results with the first bromodomain of Brd4; made in house; host or cells: E. coli BL21(DE3)
Assay: TR-FRET inhibition of tetra-acetylated histone H4 binding to Brd4 bromodomain 1
Conditions: tetra-acetylated histone H4 peptide and Brd4 bromodomain 1, 2 hours at room temperature
Protocol: Proteins were cloned and overexpressed with a N-terminal 6×His tag, then purified by nickel affinity followed by size exclusion chromatography. Briefly, E. coli BL21(DE3) cells were transformed with a recombinant expression vector encoding N-terminally Nickel affinity tagged bromodomains from Brd2, Brd3, Brd4. Cell cultures were incubated at 37° C. with shaking to the appropriate density and induced overnight with IPTG. The supernatant of lysed cells was loaded onto Ni-IDA column for purification. Eluted protein was pooled, concentrated and further purified by size exclusion chromatography. Fractions representing monomeric protein are pooled, concentrated, aliquoted, and frozen at −80° C. for use in subsequent experiments.
Binding of tetra-acetylated histone H4 and BET bromodomains was confirmed by a Time Resolved Fluorescence Resonance Energy Transfer (TR-FRET) method. N-terminally His-tagged bromodomains (200 nM) and biotinylated tetra-acetylated histone H4 peptide (25-50 nM, Millipore) were incubated in the presence of Europium Cryptate-labeled streptavidin (Cisbio Cat. #610SAKLB) and XL665-labeled monoclonal anti-His antibody (Cisbio Cat. #61 HISXLB) in a white 96 well microtiter plate (Greiner). For inhibition assays, serially diluted test compound was added to these reactions in a 0.2% final concentration of DMSO. Final buffer concentrations were 30 mM HEPES pH 7.4, 30 mM NaCl, 0.3 mM CHAPS, 20 mM phosphate pH 7.0, 320 mM KF, 0.08% BSA). After 2 hours incubation at room temperature, the fluorescence by FRET was measured at 665 and 620 nm by a SynergyH4 plate reader (Biotek). The binding inhibitory activity was shown by a decrease in 665 nm fluorescence relative to 620 nm. IC50 values were determined from a dose response curve.

SMILES | FRET activity (<50 uM)
COc1cc(OCCN)cc2nc(-c3cc(C)c(O)c(C)c3)[nH]c(=O)c12 [Example 3, 7-(2-amino-ethoxy)-2-(4-hydroxy-3,5-dimethyl-phenyl)-5-methoxy-3H-quinazolin-4-one] | Active
COCCOc1cc(OC)c2c(=O)[nH]c(-c3cc(C)c(O)c(C)c3)nc2c1 [Example 4, 2-(4-hydroxy-3,5-dimethyl-phenyl)-5-methoxy-7-(2-methoxy-ethoxy)-3H-quinazolin-4-one] | Active
COc1cc(OCCOCc2cccnc2)cc2nc(-c3cc(C)c(O)c(C)c3)[nH]c(=O)c12 [Example 6, 2-(4-hydroxy-3,5-dimethylphenyl)-5-methoxy-7-[2-(pyridin-3-ylmethoxy)ethoxy]-3H-quinazolin-4-one] | Active
Cc1cc(-c2nc3cc(OCCN(C)C)ccc3c(=O)[nH]2)cc(C)c1O [Example 7, 7-(2-dimethylamino-ethoxy)-2-(4-hydroxy-3,5-dimethylphenyl)-3H-quinazolin-4-one] | Active
Cc1cc(-c2nc3ccc(Nc4ccncc4)cc3c(=O)[nH]2)cc(C)c1O [Example 8, 2-(4-hydroxy-3,5-dimethyl-phenyl)-6-(pyridin-4-ylamino)-3H-quinazolin-4-one] | Active
Cc1cc(-c2nc3ccc(Nc4ccccn4)cc3c(=O)[nH]2)cc(C)c1O [Example 9, 2-(4-hydroxy-3,5-dimethyl-phenyl)-6-(pyridin-2-ylamino)-3H-quinazolin-4-one] | Inactive
Cc1cc(-c2nc3ccc(CN4CCN(C)CC4)cc3c(=O)[nH]2)cc(C)c1O [Example 10, 2-(4-hydroxy-3,5-dimethylphenyl)-6-((4-methylpiperazin-1-yl)methyl)quinazolin-4(3H)-one] | Active
Cc1cc(-c2nc3ccc(CNS(C)(=O)=O)cc3c(=O)[nH]2)cc(C)c1O [Example 11, N-((2-(4-hydroxy-3,5-dimethylphenyl)-4-oxo-3,4-dihydroquinazolin-6-yl)methyl)methanesulfonamide] | Active
COc1cc(OC)c2c(=O)[nH]c(-c3cc(C)c(OCCOCc4ccccc4)c(C)c3)nc2n1 [Example 12, 2-(4-(2-(benzyloxy)ethoxy)-3,5-dimethylphenyl)-5,7-dimethoxypyrido[2,3-d]pyrimidin-4(3H)-one] | Inactive
Cc1cc(C)c2c(=O)[nH]c(-c3cc(C)c(OCCO)c(C)c3)nc2n1 [Example 13, 2-(4-(2-hydroxyethoxy)-3,5-dimethylphenyl)-5,7-dimethylpyrido[2,3-d]pyrimidin-4(3H)-one] | Active
Cc1cc(-c2nc3cc(F)cc(F)c3c(=O)[nH]2)cc(C)c1OCCO [Example 14, 5,7-difluoro-2-(4-(2-hydroxyethoxy)-3,5-dimethylphenyl)quinazolin-4(3H)-one] | Inactive
COc1cc(OC)c2c(=O)[nH]c(-c3cc(C)c(OCC(O)CO)c(C)c3)nc2c1 (stereo not shown) [Example 16, 2-[4-(2,3-Dihydroxy-propoxy)-3,5-dimethyl-phenyl]-5,7-dimethoxy-3H-quinazolin-4-one] | Active
COc1cc(OC)c2c(=O)[nH]c(-c3ccc(OCCO)cc3)nc2c1 [Example 17, 2-[4-(2-hydroxy-ethoxy)-phenyl]-5,7-dimethoxy-3H-quinazolin-4-one] | Active
COc1cc(OC)c2c(=O)[nH]c(-c3ccc(OCCO)c4ccccc34)nc2c1 [Example 18, 2-[4-(2-hydroxy-ethoxy)-naphthalen-1-yl]-5,7-dimethoxy-3H-quinazolin-4-one] | Active
COc1cc(OC)c2c(=O)[nH]c(-c3ccc4oc(CO)cc4c3)nc2c1 [Example 19, 2-(2-hydroxymethyl-benzofuran-5-yl)-5,7-dimethoxy-3H-quinazolin-4-one] | Inactive
COc1cc(OCCOCc2ccccc2)cc2nc(-c3cc(C)c(OCCO)c(C)c3)[nH]c(=O)c12 [Example 20, 7-(2-benzyloxy-ethoxy)-2-[4-(2-hydroxy-ethoxy)-3,5-dimethyl-phenyl]-5-methoxy-3H-quinazolin-4-one] | Active

SMILES | FRET activity (<50 uM)
COc1cc(OCCOCc2ccccc2)cc2nc(-c3ccc4oc(CO)cc4c3)[nH]c(=O)c12 [Example 21, 7-(2-benzyloxy-ethoxy)-2-(2-hydroxymethyl-benzofuran-5-yl)-5-methoxy-3H-quinazolin-4-one] | Inactive
CNC(=O)COc1c(C)cc(-c2nc3cc(OC)cc(OC)c3c(=O)[nH]2)cc1C [Example 22, 2-[4-(5,7-dimethoxy-4-oxo-3,4-dihydro-quinazolin-2-yl)-2,6-dimethyl-phenoxy]-N-methyl-acetamide] | Active
COc1ccc(NC(=O)COc2c(C)cc(-c3nc4cc(OC)cc(OC)c4c(=O)[nH]3)cc2C)cc1 [Example 23, 2-[4-(5,7-Dimethoxy-4-oxo-3,4-dihydro-quinazolin-2-yl)-2,6-dimethyl-phenoxy]-N-(4-methoxy-phenyl)-acetamide] | Active
COc1cc(OC)c2c(=O)[nH]c(-c3cc(C)c(OCC(=O)NCc4ccccc4)c(C)c3)nc2c1 [Example 24, N-benzyl-2-[4-(5,7-dimethoxy-4-oxo-3,4-dihydroquinazolin-2-yl)-2,6-dimethylphenoxy]acetamide] | Active
COc1cc(OC)c2c(=O)[nH]c(-c3cc(C)c(OCCCCO)c(C)c3)nc2c1 [Example 25, 2-[4-(4-hydroxy-butoxy)-3,5-dimethyl-phenyl]-5,7-dimethoxy-3H-quinazolin-4-one] | Active
Cc1cc(-c2nc3cc(Cl)ccc3c(=O)[nH]2)cc(C)c1OCCO [Example 26, 7-chloro-2-(4-(2-hydroxyethoxy)-3,5-dimethylphenyl)quinazolin-4(3H)-one] | Inactive
Cc1cc(-c2nc3cccc(Cl)c3c(=O)[nH]2)cc(C)c1OCCO [Example 27, 5-chloro-2-(4-(2-hydroxyethoxy)-3,5-dimethylphenyl)quinazolin-4(3H)-one] | Inactive
COc1ccc2c(=O)[nH]c(-c3cc(C)c(OCCO)c(C)c3)nc2c1 [Example 28, 2-(4-(2-hydroxyethoxy)-3,5-dimethylphenyl)-7-methoxyquinazolin-4(3H)-one] | Inactive
COc1cc(OC)c2c(=O)[nH]c(-c3ccc(OCCNc4nnc(-c5ccccc5)[nH]4)c(C)c3)nc2c1 [Example 29, 5,7-Dimethoxy-2-{3-methyl-4-[2-(5-phenyl-4H-[1,2,4]triazol-3-ylamino)-ethoxy]-phenyl}-3H-quinazolin-4-one] | Active
COc1cc(OC)c2c(=O)[nH]c(-c3cc(C)c(OCCNc4nc(C)no4)c(C)c3)nc2c1 [Example 30, 2-{3,5-Dimethyl-4-[2-(3-methyl-[1,2,4]oxadiazol-5-ylamino)-ethoxy]-phenyl}-5,7-dimethoxy-3H-quinazolin-4-one] | Active
COc1cc(OC)c2c(=O)[nH]c(-c3cc(C)c(OCCNC(C)=O)c(C)c3)nc2n1 [Example 31, N-{2-[4-(5,7-dimethoxy-4-oxo-3,4-dihydro-pyrido[2,3-d]pyrimidin-2-yl)-2,6-dimethyl-phenoxy]-ethyl}-acetamide] | Active
COc1cc(OC)c2c(=O)[nH]c(-c3cc(C)c(CNC(C)=O)c(C)c3)nc2n1 [Example 33, N-[4-(5,7-dimethoxy-4-oxo-3,4-dihydro-pyrido[2,3-d]pyrimidin-2-yl)-2,6-dimethyl-benzyl]-acetamide] | Active
COc1cc(OC)c2c(=O)[nH]c(-c3cc(C)c(OCCNCC(F)(F)F)c(C)c3)nc2c1 [Example 34, 2-{3,5-dimethyl-4-[2-(2,2,2-trifluoro-ethylamino)-ethoxy]-phenyl}-5,7-dimethoxy-3H-quinazolin-4-one] | Inactive
COc1cc(OC)c2c(=O)[nH]c(-c3cc(C)c(OCCNC=O)c(C)c3)cc2c1 [Example 35, N-{2-[4-(6,8-dimethoxy-1-oxo-1,2-dihydro-isoquinolin-3-yl)-2,6-dimethyl-phenoxy]-ethyl}-formamide] | Active
CNCCOc1c(C)cc(-c2nc3cc(OC)cc(OC)c3c(=O)[nH]2)cc1C [Example 36, 2-(3,5-dimethyl-4-(2-(methylamino)ethoxy)phenyl)-5,7-dimethoxyquinazolin-4(3H)-one] | Active
